Where a name gives a salt, the structure may show the parent alone.

In the first assay the test system is MMP-13. Put plainly: MMP-13 Production Inhibition Test. In kind it is cell-based, human. The note with it: Homo sapiens; 30 μmol/L; SW1353 cells stimulated with IL-1β 10 ng/mL; MMP-13 in culture supernatant by ELISA 16 hours after stimulation; read-out: Inhibition rate (%) at 30 μmol/L. Here is the method:
MMP-13 Production Inhibition Test
6.8×10^3 human cartilage derived cell line SW1353 cells were suspended in 100 μL of Dulbecco modified Eagle's medium supplemented with 10% fetal calf serum, plated on 96-well plates and cultured for 3 days. After the culture medium was changed to Dulbecco modified Eagle's medium containing 0.2% lactalbumin hydrolysate and the cells were cultured for 6 hours, […] were added and then IL-1β was added to obtain the final concentration of 10 ng/mL 1 hour later. 16 hours after the stimulation, supernatant was collected and the amount of MMP-13 in the culture supernatant was determined with an ELISA kit (Amersham). The inhibition rate was calculated from the amount of MMP-13 in the presence of a test compound assuming that the amount of MMP-13 was 100% in the absence of the test compound.
In general terms: ELISA stands for enzyme-linked immunosorbent assay.
As for `O=C(O)c1ccc(-c2ccccc2)cc1NC(=O)c1ccc(C(F)(F)F)cc1C(F)(F)F` [Example 318, 4-Phenyl-2-(2,4-bis(trifluoromethyl)benzamido)benzoic acid], the inhibition at 30 µM turned out to be 95%.
As to `O=C(Nc1cc(-c2cccc(Cl)c2)ccc1C(=O)O)c1ccc(O)cc1` [Example 196, 4-(3-chlorophenyl)-2-(4-hydroxybenzamido)benzoic acid], the inhibition at 30 µM was determined as 97%.
On to `O=C(Nc1cc(CCc2ccccc2)ccc1C(=O)O)c1ccc(Cl)c(Cl)c1` [Example 431, 2-(3,4-Dichlorobenzamido)-4-phenethylbenzoic acid], for which the inhibition at 30 µM is 98%.
As for `O=C(O)c1ccc(Oc2ccccc2)cc1NC(=O)C1CCCCC1` [Example 85, 2-(Cyclohexanecarboxamido)-4-phenoxybenzoic acid], the inhibition at 30 µM is 60%.
Same read-out and setting: the same measure for `O=C(Nc1cc(/C=C/c2ccccc2)ccc1C(=O)O)c1ccccc1` [Example 24, 2-(benzamido)-4-((E)-2-phenylvinyl)benzoic acid]: 92%; for `O=C(Nc1cc(Oc2ccccc2)ccc1C(=O)O)c1nc2ccccc2s1` [Example 97, 2-(Benzothiazole-2-carboxamido)-4-phenoxybenzoic acid]: 97%.
With `O=C(Nc1cc(-c2cc3ccccc3o2)ccc1C(=O)O)c1ccccc1` [Example 8, 2-(benzamido)-4-(benzofuran-2-yl)benzoic acid], the inhibition at 30 µM was 95%.
On the same count and under the same terms, to `COc1cccc(/C=C/c2ccc(C(=O)O)c(NC(=O)c3ccc4c(c3)OCO4)c2)c1` [Example 157, 2-(Benzo[1,3]dioxole-5-carboxamido)-4-((E)-2-(3-methoxyphenyl)vinyl)benzoic acid] belongs 98%; to `O=C(Nc1cc(-n2cnc3ccccc32)ccc1C(=O)O)c1ccccc1` [Example 415, 2-(benzamido)-4-(1H-benzimidazol-1-yl)benzoic acid hydrochloride], 97%.
Still for that read-out and setting: to `O=C(Nc1cc(-c2ccc(O)cc2)ccc1C(=O)O)c1ccc(C(F)(F)F)cc1` [Example 176, 4-(4-Hydroxyphenyl)-2-(4-(trifluoromethyl)benzamido)benzoic acid] belongs 98%; to `Cc1ccc(-c2ccc(C(=O)O)c(NC(=O)c3ccccc3)c2)cc1Cl` [Example 426, 2-(benzamido)-4-(3-chloro-4-methylphenyl)benzoic acid], 98%; to `Cc1ccc(C(=O)Nc2cc(CCc3ccccc3)ccc2C(=O)O)cc1C` [Example 261, 2-(3,4-Dimethylbenzamido)-4-phenethylbenzoic acid], 94%.
Still for that read-out and setting: to `O=C(Nc1cc(OC2CCCCC2)ccc1C(=O)O)c1ccccc1` [Example 105, 2-(benzamido)-4-(cyclohexyloxy)benzoic acid] belongs 64%; to `O=C(Nc1cc(-c2ccc(F)cc2F)ccc1C(=O)O)c1ccccc1` [Example 19, 2-(benzamido)-4-(2,4-difluorophenyl)benzoic acid], 94%; to `O=C(Nc1cc(Oc2ccccc2)ccc1C(=O)O)c1ccc2c(c1)OCCO2` [Example 83, 2-(2,3-Dihydrobenzo[1,4]dioxin-6-carboxamido)-4-phenoxybenzoic acid], 93%.
For the compound `CC(=O)c1cccc(C(=O)Nc2cc(-c3ccccc3)ccc2C(=O)O)c1` [Example 514, 2-(3-Acetylbenzamido)-4-phenylbenzoic acid], the inhibition at 30 µM turned out to be 91%.
Still for that read-out and setting: the same measure for `O=C(Nc1cc(/C=C/c2cccc3nsnc23)ccc1C(=O)O)c1ccccc1` [Example 146, 2-(Benzamido)-4-((E)-2-(2,1,3-benzothiadiazol-4-yl)vinyl)benzoic acid]: 97%; for `O=C(Nc1cc(Oc2cc(F)cc(F)c2)ccc1C(=O)O)c1ccccc1` [Example 539, 2-(benzamido)-4-(3,5-difluorophenoxy)benzoic acid]: 97%.
Still for that read-out and setting: the same measure for `O=C(C=Cc1ccccc1)Nc1cc(Oc2ccccc2)ccc1C(=O)O` [Example 91, 2-(Cinnamamido)-4-phenoxybenzoic acid]: 95%; for `O=C(Nc1cc(-c2c(F)cccc2F)ccc1C(=O)O)c1ccccc1` [Example 217, 2-(Benzamido)-4-(2,6-difluorophenyl)benzoic acid]: 68%; for `Cc1cccc(C)c1Oc1ccc(C(=O)O)c(NC(=O)c2ccccc2)c1` [Example 564, 2-(Benzamido)-4-(2,6-dimethylphenoxy)benzoic acid]: 97%.
On the same count and under the same terms, to `O=C(/C=C/c1ccc(Cl)c(Cl)c1)Nc1cc(Oc2ccccc2)ccc1C(=O)O` [Example 382, 2-((E)-3-(3,4-Dichlorophenyl)acrylamido)-4-phenoxybenzoic acid] belongs 98%.
Consider `COc1ccc(-c2ccc(C(=O)O)c(NC(=O)c3ccccc3)c2)cc1` [Example 22, 2-(Benzamido)-4-(4-methoxyphenyl)benzoic acid], for which the inhibition at 30 µM came out at 81%.
The same measure, in the same setting: to `O=C(Nc1cc(Oc2ccccc2)ccc1C(=O)O)c1ccc(N2CCOCC2)nc1` [Example 330, 2-(6-Morpholinopyridine-3-carboxamido)-4-phenoxybenzoic acid] belongs 68%; to `Cc1cccc(C(=O)Nc2cc(-c3ccc(F)cc3F)ccc2C(=O)O)c1C` [Example 189, 4-(2,4-difluorophenyl)-2-(2,3-dimethylbenzamido)benzoic acid], 96%; to `O=C(Nc1cc(/C=C/c2ccc(F)cc2F)ccc1C(=O)O)c1ccccc1` [Example 141, 2-(benzamido)-4-((E)-2-(2,4-difluorophenyl)vinyl)benzoic acid], 95%.
In the case of `O=C(Nc1cc(CCc2ccccc2)ccc1C(=O)O)c1ccc(C(F)(F)F)cc1` [Example 264, 4-Phenethyl-2-(4-(trifluoromethyl)benzamido)benzoic acid], the inhibition at 30 µM was 94%.
On the same count and under the same terms, to `O=C(Nc1cc(-c2ccc(F)cc2F)ccc1C(=O)O)c1ccc(F)cc1` [Example 150, 4-(2,4-difluorophenyl)-2-(4-fluorobenzamido)benzoic acid] belongs 96%; to `O=C(CCCc1ccccc1)Nc1cc(Oc2ccccc2)ccc1C(=O)O` [Example 467, 4-phenoxy-2-(4-phenylbutanamido)benzoic acid], 90%.
The same measure, in the same setting: the same measure for `O=C(Nc1cc(-c2cccc(OC(F)(F)F)c2)ccc1C(=O)O)c1ccccc1` [Example 234, 2-(Benzamido)-4-(3-(trifluoromethoxy)phenyl)benzoic acid]: 99%; for `O=C(O)c1ccc(Oc2ccccc2)cc1NS(=O)(=O)c1ccccc1` [Example 88, 2-(Benzenesulfonamido)-4-phenoxybenzoic acid]: 80%.
For the compound `O=C(Nc1cc(/C=C/c2cccc(Cl)c2)ccc1C(=O)O)c1ccccc1` [Example 134, 2-(Benzamido)-4-((E)-2-(3-chlorophenyl)vinyl)benzoic acid], the inhibition at 30 µM is 99%.
The same measure, in the same setting: the same measure for `O=C(Nc1cc(-c2cccs2)ccc1C(=O)O)c1ccccc1` [Example 7, 2-(Benzamido)-4-(thiophen-2-yl)benzoic acid]: 91%; for `O=C(Nc1cc(-c2ccc3c(c2)OCO3)ccc1C(=O)O)c1ccccc1` [Example 11, 2-(benzamido)-4-(benzo[1,3]dioxol-5-yl)benzoic acid]: 92%; for `O=C(Nc1cc(-c2ccccc2)ccc1C(=O)O)c1ccccc1` [Example 4, 2-(benzamido)-4-phenylbenzoic acid]: 80%.
On to `O=C(Nc1cc(-c2ccc(O)cc2)ccc1C(=O)O)c1ccccc1` [Example 243, 2-(benzamido)-4-(4-hydroxyphenyl)benzoic acid], for which the inhibition at 30 µM was found to be 96%.
The same measure, in the same setting: the same measure for `O=C(/C=C/c1cccc(Cl)c1)Nc1cc(-c2ccccc2)ccc1C(=O)O` [Example 358, 2-((E)-3-(3-Chlorophenyl)acrylamido)-4-phenylbenzoic acid]: 99%.
Turning to `O=C(Nc1cc(CCc2ccc(OC(F)(F)F)cc2)ccc1C(=O)O)c1ccccc1` [Example 138, 2-(Benzamido)-4-(2-(4-(trifluoromethoxy)phenyl)ethyl)benzoic acid], the inhibition at 30 µM is 95%.
The same measure, in the same setting: the same measure for `O=C(Nc1cc(-c2ccccc2)ccc1C(=O)O)c1ccc(Cl)cc1` [Example 316, 2-(4-Chlorobenzamido)-4-phenylbenzoic acid]: 96%.
On the same count and under the same terms, to `O=C(Nc1cc(-c2ccc(Cl)cc2)ccc1C(=O)O)c1ccccc1` [Example 212, 2-(Benzamido)-4-(4-chlorophenyl)benzoic acid] belongs 95%; to `O=C(Nc1cc(OCc2ccccc2)ccc1C(=O)O)c1ccccc1` [Example 99, 2-(benzamido)-4-(benzyloxy)benzoic acid], 71%; to `O=C(Nc1cc(Oc2ccccc2)ccc1C(=O)O)c1ccc(-n2cccc2)nc1` [Example 499, 4-Phenoxy-2-(6-(1H-pyrrol-1-yl)pyridine-3-carboxamido)benzoic acid], 99%.
With `Cc1cccc(-c2ccc(C(=O)O)c(NC(=O)c3ccccc3)c2)c1C` [Example 230, 2-(Benzamido)-4-(2,3-dimethylphenyl)benzoic acid], the inhibition at 30 µM is 95%.

The assay is the same for the next values; noted with them: SW1353 cells stimulated with IL-1β 10 ng/mL, MMP-13 in culture supernatant by ELISA 16 hours after stimulation.
As for `Cc1ccc(-c2ccc(C(=O)O)c(NC(=O)c3ccccc3)c2)cc1` [Example 240], the “Inhibition rate (%) at 30 μmol/L” value was determined as 94%.

The values are drawn from patent US7999132B2, “Anthranilic acid derivative or salt thereof” (Toyama Chemical Co., Ltd., priority 2004, dated 2011).
